We go through eight molecules from paper PMC11790914, “Chemogenomics for steroid hormone receptors (NR3)” (Communications Chemistry, 2025).

One data set has as its target T1, NR1I2 (PXR) (Homo sapiens, UniProt O75469).
T1 construct: expressed in transfected cells; host or cells: HEK293T
Nature of the data set: Gal4 hybrid reporter gene assay PXR. The format is cell-based. The settings on record: 1 µM, n=3. As for the experimental part:
(§1) Reference ligands are listed in the methods section.
(§2) HEK293T cells (ATCC, Manassas, Virgina, USA; #CRL-3216) were cultured to a maximal confluence of 70–80% in DMEM, high glucose, supplemented with 10% FCS, sodium pyruvate (1 mM), penicillin (100 U/mL), and streptomycin (100 μg/mL) at 37 °C and 5% CO2 (v/v), and seeded in clear 96-well plates (4 × 10^4 cells per well). After 20–24 h, medium was changed to Opti-MEM without supplements and the cells were transiently transfected using Lipofectamine™ LTX/Plus™ Reagents (Invitrogen, Carlsbad, California, USA; #15338100) according to the manufacturer’s protocol with pFR-Luc (reporter gene; Stratagene, Agilent Technologies, Santa Clara, California, USA; #219050), pRL-SV40 (control gene for normalization of transfection efficiency and cell growth; Promega, Fitchburg, Wisconsin, USA; #E2231) and one pFA-CMV-hNR-LBD clone coding for the hinge region and ligand binding domain (LBD) of the human NR of interest. […] Firefly (reporter) and renilla (control) luminescence were measured after 14–16 h incubation using the Dual-Glo® Luciferase Assay System (Promega, Fitchburg, Wisconsin, USA; #E2980) according to manufacturer’s protocol on a Tecan Spark® 10M multimode microplate reader (Tecan Group AG, Männedorf, Switzerland). To obtain relative light units (RLU) firefly luminescence was divided by renilla luminescence and multiplied by 1000. […]

Another data set has as its target T2, NR2B1 (RXRα) (Homo sapiens, UniProt P19793).
T2 construct: expressed in transfected cells; host or cells: HEK293T
Description: Gal4 hybrid reporter gene assay RXRα. Format: cell-based. The note with it: n=3. As for the experimental part: as §1
Five hours after transfection, the cells were incubated with the NR3 CG compound candidates at the recommended concentrations by changing the medium to Opti-MEM supplemented with penicillin (100 µ/mL) and streptomycin (100 µg/mL) additionally containing 0.1% DMSO and the respective test compound or 0.1% DMSO alone as untreated control. Firefly (reporter) and renilla (control) luminescence were measured after 14–16 h incubation using the Dual-Glo® Luciferase Assay System (Promega, Fitchburg, Wisconsin, USA; #E2980) according to manufacturer’s protocol on a Tecan Spark® 10M multimode microplate reader (Tecan Group AG, Männedorf, Switzerland). To obtain relative light units (RLU) firefly luminescence was divided by renilla luminescence and multiplied by 1000. Fold activation was obtained by dividing the mean RLU of a test sample by the mean RLU of the DMSO (0.1%) control. Experiments were performed in singlets in at least three biologically independent repeats.
Supplementary Figure 1. […] Compounds are labeled according
Supplementary Figure 2. […] Compounds are
representing the NR1, NR2, NR4 and NR5 families.
scanning fluorimetry (DSF).
a concentration of 20 µM.

The next data set concerns the target T3, NR1C3 (PPARγ) (Homo sapiens, UniProt P37231).
T3 construct: expressed in transfected cells; host or cells: HEK293T
Nature of the data set: Gal4 hybrid reporter gene assay PPARγ. Format: cell-based. The note with it: n=3. As for the experimental part: as §1, §2

The next data set deals with T4, NR4A1 (Nur77) (Homo sapiens, UniProt P22736).
T4 construct: expressed in transfected cells; host or cells: HEK293T
Description: Gal4 hybrid reporter gene assay Nur77. Format: cell-based. The note with it: 10 µM, n=3. On the procedure:
as §1, §2

The target in the next data set is T5, NR1F3 (RORγ) (Homo sapiens, UniProt P51449).
T5 construct: expressed in transfected cells; host or cells: HEK293T
Nature of the data set: Gal4 hybrid reporter gene assay RORγ. The format is cell-based. The settings on record: 3 µM, n=3. On the procedure:
as §1, §2

The test system of another data set is NR3B3 (ERRγ). The settings on record: (lit.); ref Supplementary Table 1; read-out: Potency [nM] EC50, NR3B3 (ERRγ); cited from earlier work.
The subject of the next data set is NR3C1 (GR). The note with it: cited from earlier work.
For the next data set, the system named is NR3C2 (MR). The note with it: rem. act.; cited from earlier work.
In a further data set the test system is NR3C4 (AR). The settings on record: cited from earlier work.
For the next data set, the system named is NR3C3 (PR). The note with it: cited from earlier work; for IC50: (lit.), ref Supplementary Table 1, read-out: Potency [nM] IC50, NR3C3 (PR).
For the next data set, the system named is NR5A2 (LRH1). Nature of the data set: Gal4 hybrid reporter gene assay LRH1. The format is cell-based, human. The settings on record: 1 µM; n=3; vs. DMSO ctrl. As for the experimental part:
as §1, §2

T2 sequence (P19793 227-458 limits assumed): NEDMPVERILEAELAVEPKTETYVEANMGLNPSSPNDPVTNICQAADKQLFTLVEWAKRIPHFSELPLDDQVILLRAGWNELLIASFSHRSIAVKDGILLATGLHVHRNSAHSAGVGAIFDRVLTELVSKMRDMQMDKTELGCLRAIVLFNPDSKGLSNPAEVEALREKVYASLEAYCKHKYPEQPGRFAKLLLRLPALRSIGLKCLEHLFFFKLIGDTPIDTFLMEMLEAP
T3 sequence (P37231 238-503 limits assumed): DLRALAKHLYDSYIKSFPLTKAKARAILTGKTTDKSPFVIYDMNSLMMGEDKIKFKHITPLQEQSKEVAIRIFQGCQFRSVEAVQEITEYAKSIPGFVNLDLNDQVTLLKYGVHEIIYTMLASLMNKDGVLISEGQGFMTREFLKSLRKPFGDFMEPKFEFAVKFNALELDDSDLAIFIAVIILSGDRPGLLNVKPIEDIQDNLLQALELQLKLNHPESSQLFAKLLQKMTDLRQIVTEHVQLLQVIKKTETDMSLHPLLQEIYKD
T5 sequence (P51449 269-508 limits assumed): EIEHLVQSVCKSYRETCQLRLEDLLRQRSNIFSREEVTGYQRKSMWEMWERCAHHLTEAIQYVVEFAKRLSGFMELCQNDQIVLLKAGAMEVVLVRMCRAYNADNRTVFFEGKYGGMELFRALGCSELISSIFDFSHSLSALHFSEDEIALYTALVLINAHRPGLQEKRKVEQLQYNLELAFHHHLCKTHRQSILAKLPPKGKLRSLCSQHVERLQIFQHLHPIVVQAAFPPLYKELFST
T4 sequence (P22736 360-595 limits assumed): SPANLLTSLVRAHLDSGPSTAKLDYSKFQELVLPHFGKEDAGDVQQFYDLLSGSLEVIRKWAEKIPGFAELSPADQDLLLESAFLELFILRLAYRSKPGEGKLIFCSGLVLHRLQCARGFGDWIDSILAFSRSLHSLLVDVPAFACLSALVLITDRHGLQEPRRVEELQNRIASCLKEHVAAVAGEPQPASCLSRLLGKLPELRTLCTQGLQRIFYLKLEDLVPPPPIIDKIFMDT
T1 sequence (O75469 146-433 limits assumed): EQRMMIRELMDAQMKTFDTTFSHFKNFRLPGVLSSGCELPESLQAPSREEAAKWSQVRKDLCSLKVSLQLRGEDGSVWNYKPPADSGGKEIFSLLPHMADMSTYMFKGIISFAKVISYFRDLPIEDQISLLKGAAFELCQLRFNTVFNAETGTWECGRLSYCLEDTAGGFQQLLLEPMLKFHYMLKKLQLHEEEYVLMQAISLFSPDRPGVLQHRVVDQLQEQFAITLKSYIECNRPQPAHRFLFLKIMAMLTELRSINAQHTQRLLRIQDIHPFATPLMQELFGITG

As to `CC/C(=C(/c1ccc(/C=C/C(=O)O)cc1)c1ccc2[nH]ncc2c1)c1ccc(F)cc1Cl` [ARN810], on NR1I2 (PXR), the “Activity on NR1I2 (PXR)” value is on record as -0.68 mean log10(fold reporter gene activity). In addition, the “Activity on NR2B1 (RXRα)” value at NR2B1 (RXRα) (1 µM) was -0.29 mean log10(fold reporter gene activity).
As to `COc1ccc(-c2coc3cc(O)cc(O)c3c2=O)cc1` [Biochanin A], on NR1C3 (PPARγ) (10 µM), the “Activity on NR1C3 (PPARγ)” value is given as -0.56 mean log10(fold reporter gene activity). The “Activity on NR2B1 (RXRα)” value on NR2B1 (RXRα) (10 µM) was -0.68 mean log10(fold reporter gene activity). On NR4A1 (Nur77), the “Activity on NR4A1 (Nurr77)” value is 0.34 mean log10(fold reporter gene activity).
Consider `CCCC1O[C@@H]2C[C@H]3[C@@H]4CCC5=CC(=O)C=C[C@]5(C)[C@H]4[C@@H](O)C[C@]3(C)[C@]2(C(=O)CO)O1` (stereo partly drawn) [Budesonide], for which the “Activity on NR1F3 (RORγ)” value on NR1F3 (RORγ) is -0.30 mean log10(fold reporter gene activity).
Regarding `CCN(CC)c1ccc(/C=N/NC(=O)c2ccc(O)cc2)cc1` [DY131], the “Activity on NR targets outside NR3 family [mean log10(fold reporter gene activity)] NR1F3 (RORγ)” value at NR1F3 (RORγ) (vs. DMSO ctrl) was 0.21 log10(fold reporter gene activity). In addition, in the data set with NR3B3 (ERRγ), the half-maximal effective concentration (EC50) is 130 nM.
As for `Cc1ccc2c(NC[C@](O)(CC(C)(C)c3cc(F)cc4c3OCC4)C(F)(F)F)cccc2n1` [Mapracorat], the EC50 in the data set with NR3C1 (GR) ((lit.), ref Supplementary Table 1, read-out: Potency [nM] EC50, NR3C1 (GR)) is 1.6 ± 0.3 nM. Further, the “rel. activity from literature, NR3C1 (GR): % transrepression” value in the data set on NR3C1 (GR) (transrepression) was 89 ± 4%.
As for `CC#C[C@]1(O)CC[C@H]2[C@@H]3CCC4=CC(=O)CCC4=C3[C@@H](c3ccc(N(C)C)cc3)C[C@@]21C` [Mifepristone], the half-inhibitory concentration (IC50) in the data set on NR3C1 (GR) ((lit.), ref Supplementary Table 1, read-out: Potency [nM] IC50, NR3C1 (GR)) was 0.8 ± 0.1 nM; with NR3C4 (AR) (read-out: Potency [nM] IC50, NR3C4 (AR), (lit.), ref Supplementary Table 1), 5 ± 2 nM; in the data set with NR3C3 (PR), […]. Besides, the “rel. activity from literature, NR3C1 (GR): % rem. act. of DXM” value in the data set on NR3C1 (GR) (rem. act. of DXM (dexamethasone)) was […]. Moreover, the “rel. activity from literature, NR3C2 (MR): % rem. act.” value in the data set with NR3C2 (MR) is on record as […]. Moreover, the “rel. activity from literature, NR3C4 (AR): % rem. act. of DHT” value with NR3C4 (AR) is recorded as 25 ± 2%. Further, in the data set on NR3C3 (PR) (rem. act. of PGN (progesterone)), the “rel. activity from literature, NR3C3 (PR): % rem. act. of PGN” value is […].
Take `COc1cc(/C=C(\C#N)C(=O)Nc2nnc(C(F)(F)F)s2)ccc1OCc1ccc(C(F)(F)F)cc1C(F)(F)F` [XCT790]: in the data set with NR5A2 (LRH1), the “Activity on NR targets outside NR3 family [mean log10(fold reporter gene activity)] NR5A2 (LRH1)” value was 0.20 log10(fold reporter gene activity). Further, the “Activity on NR targets outside NR3 family [mean log10(fold reporter gene activity)] NR1C3 (PPARγ)” value on NR1C3 (PPARγ) (1 µM, vs. DMSO ctrl) was 0.75 log10(fold reporter gene activity).
Consider `C/C=C1\C(=O)C[C@H]2[C@@H]3CCC4=CC(=O)CC[C@]4(C)[C@H]3CC[C@]12C` [Z-Guggulsterone], for which, in the data set with NR3C4 (AR) (read-out: Potency [nM] EC50, NR3C4 (AR), (lit.), ref Supplementary Table 1), the EC50 was 660 ± 240 nM. For the same molecule, the half-maximal inhibitory concentration (IC50) in the data set with NR3C3 (PR) is 740 ± 220 nM.
